± gives the standard deviation of the averaged measurements.
Experiments:
YM155 = compound: COCC[n+]1c2c(n(Cc3cnccn3)c1C)C(=O)c1ccccc1C2=O [YM155]; assay: surviving fraction relative to DMSO-only wells; higher = less growth inhibition; conditions: exposure time: 5 days
How it was run: (§1)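 Log-phase tumour cell lines, 250–500 cells per well in 384-well plates, received inhibitors at 0.5, 1, 5, 10, 50, 100, 500 and 1000 nM continuously for five days, starting 24 hours after seeding. Viability was quantified with CellTiter-Glo luminescence and normalised to the median of DMSO-only wells to give surviving fraction. Three screens were run per line, and a line stayed in only with replicate Pearson r >0.7 and median Z' >0.3.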

OSI-906 = compound: C[C@]1(O)C[C@@H](c2nc(-c3ccc4ccc(-c5ccccc5)nc4c3)c3c(N)nccn32)C1 [OSI-906]; assay: as above; conditions: exposure time: 5 days
How it was run: as §1

| Test System | surviving fraction (YM155; 0.5 nM) | surviving fraction (YM155; 1 nM) | surviving fraction (YM155; 5 nM) | surviving fraction (YM155; 10 nM) | surviving fraction (YM155; 50 nM) | surviving fraction (YM155; 100 nM) | surviving fraction (YM155; 500 nM) | surviving fraction (YM155; 1000 nM) | surviving fraction (OSI-906; 0.5 nM) | surviving fraction (OSI-906; 1 nM) | surviving fraction (OSI-906; 5 nM) | surviving fraction (OSI-906; 10 nM) | surviving fraction (OSI-906; 50 nM) | surviving fraction (OSI-906; 100 nM) | surviving fraction (OSI-906; 500 nM) | surviving fraction (OSI-906; 1000 nM) |
| --- | --- | --- | --- | --- | --- | --- | --- | --- | --- | --- | --- | --- | --- | --- | --- | --- |
| CME SYNOVIAL | 0.752 ± 0.12 | 0.95 ± 0.22 | 0.468 ± 0.037 | 0.254 ± 0.049 | 0.232 ± 0.023 | 0.206 ± 0.0035 | 0.189 ± 0.0055 | 0.27 ± 0.029 | 0.905 ± 0.26 | 0.854 ± 0.13 | 0.934 ± 0.15 | 0.973 ± 0.075 | 1.08 ± 0.058 | 1.14 ± 0.21 | 0.984 ± 0.095 | 0.823 ± 0.13 |
| MHM BONE | 0.972 ± 0.013 | 0.998 ± 0.021 | 1.01 ± 0.011 | 1.05 ± 0.016 | 0.299 ± 0.013 | 0.202 ± 0.0085 | 0.0287 ± 0.0011 | 0.0323 ± 0.00058 | 0.996 ± 0.021 | 0.978 ± 0.026 | 1.03 ± 0.025 | 0.999 ± 0.032 | 0.91 ± 0.05 | 0.872 ± 0.013 | 0.78 ± 0.022 | 0.721 ± 0.018 |
| HSSYII SYNOVIAL | 0.876 ± 0.058 | 0.843 ± 0.014 | 0.199 ± 0.0066 | 0.0977 ± 0.011 | 0.0352 ± 0.004 | 0.027 ± 0.0035 | 0.017 ± 0.0013 | 0.0215 ± 0.0017 | 0.8472 ± 0.0081 | 0.85 ± 0.027 | 0.9002 ± 0.0069 | 0.798 ± 0.021 | 0.814 ± 0.026 | 0.746 ± 0.04 | 0.673 ± 0.03 | 0.656 ± 0.026 |
| MDAMB468 BREAST | 0.953 ± 0.021 | 0.901 ± 0.035 | 0.325 ± 0.039 | 0.0717 ± 0.0067 | 0.034 ± 0.002 | 0.0367 ± 0.0031 | 0.0353 ± 0.0065 | 0.0377 ± 0.0021 | 0.867 ± 0.12 | 0.833 ± 0.13 | 0.95 ± 0.032 | 0.955 ± 0.092 | 1.06 ± 0.087 | 1.03 ± 0.036 | 0.851 ± 0.09 | 0.846 ± 0.019 |
| SG43 HEADNECK | 1.18 ± 0.4 | 1.02 ± 0.032 | 0.744 ± 0.088 | 0.81 ± 0.15 | 0.783 ± 0.052 | 0.705 ± 0.084 | 0.159 ± 0.058 | 0.0523 ± 0.0084 | 1.21 ± 0.074 | 1.18 ± 0.13 | 0.829 ± 0.025 | 0.987 ± 0.12 | 0.695 ± 0.051 | 0.665 ± 0.06 | 0.697 ± 0.021 | 0.614 ± 0.021 |
| HCC38 BREAST | 1.28 ± 0.18 | 1.27 ± 0.12 | 0.346 ± 0.013 | 0.243 ± 0.015 | 0.043 ± 0.0056 | 0.031 ± 0.002 | 0.0247 ± 0.0021 | 0.0297 ± 0.0011 | 0.958 ± 0.13 | 0.883 ± 0.083 | 1.06 ± 0.09 | 0.902 ± 0.12 | 1.1 ± 0.19 | 1.12 ± 0.019 | 1.16 ± 0.14 | 1.07 ± 0.24 |
| SYO1 SYNOVIAL | 0.847 ± 0.01 | 0.967 ± 0.035 | 0.761 ± 0.03 | 0.514 ± 0.012 | 0.0558 ± 0.0015 | 0.0337 ± 0.0012 | 0.0242 ± 0.00051 | 0.0279 ± 0.0021 | 0.795 ± 0.048 | 0.814 ± 0.044 | 0.832 ± 0.023 | 0.824 ± 0.058 | 0.838 ± 0.055 | 0.897 ± 0.033 | 0.897 ± 0.034 | 0.873 ± 0.016 |
| SNU475 LIVER | 0.815 ± 0.055 | 0.991 ± 0.048 | 0.97 ± 0.044 | 0.944 ± 0.03 | 0.372 ± 0.035 | 0.123 ± 0.012 | 0.0263 ± 0.00058 | 0.0303 ± 0.0015 | 0.89 ± 0.023 | 0.887 ± 0.037 | 0.887 ± 0.012 | 0.869 ± 0.054 | 0.942 ± 0.037 | 0.921 ± 0.013 | 0.944 ± 0.011 | 0.963 ± 0.015 |
| CAL120 BREAST | 0.934 ± 0.049 | 0.905 ± 0.073 | 0.148 ± 0.021 | 0.0712 ± 0.0018 | 0.0243 ± 0.001 | 0.0215 ± 0.00087 | 0.016 ± 0.00087 | 0.023 ± 0.0017 | 0.895 ± 0.052 | 0.907 ± 0.054 | 0.937 ± 0.041 | 0.942 ± 0.026 | 0.901 ± 0.04 | 0.9 ± 0.066 | 0.895 ± 0.046 | 0.893 ± 0.058 |
| YAMATO SYNOVIAL | 0.656 ± 0.066 | 0.874 ± 0.067 | 0.39 ± 0.039 | 0.29 ± 0.027 | 0.229 ± 0.014 | 0.206 ± 0.0017 | 0.191 ± 0.015 | 0.267 ± 0.016 | 0.866 ± 0.13 | 0.936 ± 0.04 | 0.995 ± 0.069 | 0.986 ± 0.082 | 1.36 ± 0.22 | 1.46 ± 0.13 | 1.17 ± 0.21 | 1.12 ± 0.077 |
| SCC36 HEADNECK | 1.01 ± 0.035 | 1.02 ± 0.042 | 1.06 ± 0.14 | 0.817 ± 0.07 | 0.261 ± 0.056 | 0.105 ± 0.0036 | 0.04 ± 0.0056 | 0.0387 ± 0.0015 | 0.783 ± 0.039 | 0.816 ± 0.062 | 0.796 ± 0.083 | 0.805 ± 0.055 | 0.742 ± 0.076 | 0.834 ± 0.066 | 0.64 ± 0.19 | 0.57 ± 0.046 |
| MDAMB157 BREAST | 0.958 ± 0.024 | 1.02 ± 0.092 | 0.77 ± 0.037 | 0.799 ± 0.039 | 0.0573 ± 0.024 | 0.031 ± 0.003 | 0.0297 ± 0.0047 | 0.039 ± 0.0046 | 0.892 ± 0.048 | 0.875 ± 0.11 | 0.949 ± 0.058 | 0.946 ± 0.079 | 0.957 ± 0.11 | 0.855 ± 0.056 | 0.872 ± 0.037 | 0.884 ± 0.086 |
| VCAP PROSTATE | 0.826 ± 0.049 | 0.9053 ± 0.0074 | 0.34 ± 0.025 | 0.286 ± 0.051 | 0.0533 ± 0.027 | 0.035 ± 0.007 | 0.0293 ± 0.0067 | 0.0617 ± 0.03 | 0.908 ± 0.023 | 0.867 ± 0.039 | 0.962 ± 0.028 | 0.999 ± 0.14 | 0.942 ± 0.16 | 0.83 ± 0.064 | 0.399 ± 0.046 | 0.188 ± 0.029 |
| MDAMB361 BREAST | 0.869 ± 0.069 | 0.826 ± 0.073 | 0.919 ± 0.23 | 0.549 ± 0.041 | 0.224 ± 0.0076 | 0.191 ± 0.022 | 0.103 ± 0.0066 | 0.0887 ± 0.0074 | 0.669 ± 0.025 | 0.682 ± 0.024 | 0.721 ± 0.04 | 0.741 ± 0.061 | 0.847 ± 0.067 | 0.842 ± 0.011 | 0.758 ± 0.015 | 0.797 ± 0.033 |
| SCC003 HEADNECK | 1.072 ± 0.0061 | 1.02 ± 0.071 | 0.82 ± 0.12 | 0.502 ± 0.14 | 0.086 ± 0.0066 | 0.052 ± 0.0046 | 0.024 | 0.025 ± 0.0017 | 0.796 ± 0.018 | 0.865 ± 0.028 | 0.88 ± 0.099 | 0.87 ± 0.011 | 1.02 ± 0.022 | 1.04 ± 0.013 | 0.976 ± 0.04 | 0.845 ± 0.04 |
| RDES SOFT TISSUE | 1.44 ± 0.073 | 1.58 ± 0.18 | 1.65 ± 0.19 | 0.622 ± 0.052 | 0.0673 ± 0.0035 | 0.0373 ± 0.0015 | 0.036 ± 0.002 | 0.0367 ± 0.0021 | 0.836 ± 0.081 | 0.818 ± 0.12 | 0.77 ± 0.14 | 0.733 ± 0.18 | 1.1 ± 0.019 | 1.05 ± 0.086 | 0.84 ± 0.015 | 0.555 ± 0.032 |
| SCC90 HEADNECK | 0.914 ± 0.097 | 0.937 ± 0.021 | 1.08 ± 0.1 | 1.1 ± 0.037 | 0.676 ± 0.085 | 0.276 ± 0.039 | 0.0483 ± 0.0067 | 0.0363 ± 0.0031 | 0.88 ± 0.033 | 0.822 ± 0.075 | 0.89 ± 0.096 | 0.883 ± 0.026 | 1.03 ± 0.098 | 1.02 ± 0.027 | 0.971 ± 0.019 | 0.981 ± 0.078 |
| SG27 HEADNECK | 1.13 ± 0.13 | 1.05 ± 0.092 | 0.813 ± 0.13 | 0.575 ± 0.066 | 0.105 ± 0.035 | 0.0347 ± 0.0038 | 0.0367 ± 0.02 | 0.048 ± 0.017 | 1.1 ± 0.12 | 1.08 ± 0.064 | 0.916 ± 0.071 | 0.966 ± 0.059 | 1 ± 0.054 | 0.946 ± 0.044 | 0.807 ± 0.086 | 0.617 ± 0.069 |
| ASKA SYNOVIAL | 0.87 ± 0.054 | 0.924 ± 0.094 | 0.719 ± 0.039 | 0.375 ± 0.017 | 0.227 ± 0.017 | 0.195 ± 0.017 | 0.194 ± 0.011 | 0.243 ± 0.017 | 0.934 ± 0.059 | 0.99 ± 0.057 | 1.01 ± 0.011 | 1.07 ± 0.071 | 1.11 ± 0.13 | 1.12 ± 0.045 | 0.966 ± 0.083 | 0.97 ± 0.029 |
| HCC1395 BREAST | 0.883 ± 0.23 | 1.07 ± 0.031 | 1.15 ± 0.035 | 1.01 ± 0.056 | 0.733 ± 0.11 | 0.427 ± 0.12 | 0.278 ± 0.079 | 0.239 ± 0.065 | 0.851 ± 0.028 | 0.962 ± 0.13 | 0.977 ± 0.095 | 0.949 ± 0.027 | 1.04 ± 0.014 | 1.12 ± 0.13 | 0.847 ± 0.14 | 0.986 ± 0.043 |
| CASKI CERVIX | 0.914 ± 0.052 | 0.93 ± 0.07 | 0.796 ± 0.056 | 0.538 ± 0.046 | 0.063 ± 0.009 | 0.0337 ± 0.0011 | 0.0223 ± 0.0015 | 0.0267 ± 0.0015 | 0.826 ± 0.028 | 0.849 ± 0.029 | 0.814 ± 0.049 | 0.798 ± 0.038 | 0.976 ± 0.067 | 0.965 ± 0.064 | 0.982 ± 0.068 | 0.982 ± 0.051 |
